Laboratory results taken from US20090233895A1, “METHOD OF TREATMENT OF BACTERIAL INFECTIONS” (Ethypharm, priority 2006, published 2009).

Key:
E. coli GR2 = test: modified Hollow T-Tube in vitro model simulating antibacterial treatment with oral cefaclor in humans over 24 hours; type: cell-based, Escherichia coli; conditions: for Observed Δt > MIC / Δt > MIC: percentage of the dosage interval
Description: The bacteria stem from one strain of Escherichia coli, species that is considered to be non-constantly sensitive. The strain was obtained from M.-H. Nicolas (Hôpital Ambroise Paré, Paris, France) under the code E. coli GR2 with MIC of […]. The usual breakpoints with cefaclor for E. coli are ≦2 mg/l for sensitive strains and >8 mg/l for resistant strains, according to CA-SFM (Comité de l'Antibiogramme de la Société Française de Microbiologie).
The culture media is a Müller-Hinton Broth (MHB) obtained from Pasteur diagnostic (reference 69444). The starting inoculum of E. coli in the culture media is 10^7±5% CFU/ml. The E. coli concentration is measured by nephelometry (Densimat, ref. 99535 ver. A, Biomérieux, France) and standard dilution method.
(§1) The counting of E. coli present in the culture medium was measured in vitro in a model simulating the antibacterial treatment with oral beta-lactamine in humans over 24 hours.
(§2) The model simulating the antibacterial treatment used in the examples is a modified “Hollow T-Tube”-model, originally described by Cappellety et al. (Pharmacodynamics of ceftazidime administered as continuous infusion or intermittent bolus alone or in combination with single daily-dose amikacine against Pseudomonas aeruginosa in an in vitro infection model, A.A.C., 1995, 33: 1797-1801) and modified by the inventors (Louchahi et al. A procedure to mimic human impaired kinetic profiles of antibiotics with the hollow glass T-tube in vitro pharmacodynamic model, Abstract no 2116, p. 234, 39th ICAAC, Sep. 26-29, 1999, San Francisco).
In all experiments the period during which, after the addition of cefaclor, the concentration of cefaclor was above the MIC was measured (Δt>MIC). The result is expressed as percentage of the dosage interval.
The variation of the bacterial count was regularly registered during 24 hours. The result is expressed as ΔUFC/ml. For every experiment, the negative sign is highlighting the decreasing count with time since it corresponds to the difference between the initial inoculum at T0 and final bacterial count at T 24 h.

[1] = cefaclor concentration profile (t1/2, cmax) observed in the modified Hollow T-Tube in vitro model
Description: as §1, §2
Three different elimination half-lives were simulated: • 1. t1/2=45-50 min, which corresponds to a conventional immediate release form of cefaclor, • 2. t1/2=55-60 min, which corresponds to a conventional sustained release form of cefaclor, • 3. t1/2=90-100 min, which corresponds to an extended release form of cefaclor according to the present invention.

[2] = E1.1: expected t1/2 45-50 min, 500 mg, interval 8 h
[3] = E1.2: expected t1/2 55-60 min, 750 mg, interval 12 h
[4] = E1.3: expected t1/2 90-100 min, 500 mg, interval 8 h
[5] = E1.4: expected t1/2 90-100 min, 750 mg, interval 12 h
[6] = E1.5: expected t1/2 90-100 min, 750 mg, interval 8 h
[7] = E2.1: simulated poor absorber, 500 mg, interval 8 h
[8] = E2.2: simulated standard absorber, 500 mg, interval 8 h
[9] = E2.3: simulated good absorber, 500 mg, interval 8 h

N[C@@H](C(=O)N[C@@H]1C(=O)N2C(C(=O)O)=C(Cl)CS[C@H]12)c1ccccc1 [cefaclor, cefaclor monohydrate]
Δ UFC/ml by 24 h (E. coli GR2; [2]): −1.5 log
Observed Δt > MIC (E. coli GR2; [2]): 50%
Δ UFC/ml by 24 h (E. coli GR2; [3]): −1.5 log
Observed Δt > MIC (E. coli GR2; [3]): 30-35%
Δ UFC/ml by 24 h (E. coli GR2; [4]): −4 log
Observed Δt > MIC (E. coli GR2; [4]): 75%
Δ UFC/ml by 24 h (E. coli GR2; [5]): −1.5 log
Observed Δt > MIC (E. coli GR2; [5]): 58%
Δ UFC/ml by 24 h (E. coli GR2; [6]): >−5 log
Observed Δt > MIC (E. coli GR2; [6]): 87%
Δ UFC/ml by 24 h (E. coli GR2; [7]): −3 log
Δt > MIC (E. coli GR2; [7]): 50%
Δ UFC/ml by 24 h (E. coli GR2; [8]): −4 log
Δt > MIC (E. coli GR2; [8]): 75%
Δ UFC/ml by 24 h (E. coli GR2; [9]): −5 log
Δt > MIC (E. coli GR2; [9]): 87%
Observed t1/2 ([1]; E1.1: expected t1/2 45-50 min, 500 mg cefaclor, dosage interval 8 h): 0.767 h
Observed t1/2 ([1]; E1.2: expected t1/2 55-60 min, 750 mg cefaclor, dosage interval 12 h): 0.967 h
Observed t1/2 ([1]; E1.3: expected t1/2 90-100 min, 500 mg cefaclor, dosage interval 8 h): 1.67 h
Observed t1/2 ([1]; E1.4: expected t1/2 90-100 min, 750 mg cefaclor, dosage interval 12 h): 1.68 h
Observed t1/2 ([1]; E1.5: expected t1/2 90-100 min, 750 mg cefaclor, dosage interval 8 h): 1.53 h
Observed t1/2 ([1]; E2.1: simulated poor absorber, expected t1/2 90-100 min, 500 mg, interval 8 h): 1.6 h
Observed t1/2 ([1]; E2.2: simulated standard absorber, expected t1/2 90-100 min, 500 mg, interval 8 h): 1.67 h
Observed t1/2 ([1]; E2.3: simulated good absorber, expected t1/2 90-100 min, 500 mg, interval 8 h): 1.53 h
